Measurements reported in BindingDB's records for patent WO2022021841 (Sichuan University, 2022).

Molecular target: Replicase polyprotein 1ab (Severe acute respiratory syndrome coronavirus 2, UniProt P0DTD1)
Test: SARS-CoV-2 Coronavirus 3C Protease FRET Assay
Protocol: IC50 values were calculated by fitting a curve of Vmax to experimental values with the controls (DMSO) as the top and bottom limits of the curve. […] GraphPad Prism is the analysis tool for all measurements.

Row | SMILES | Ki
1 | CC1CNC(=O)[C@@H]1C[C@H](NC(=O)C1[C@H]2[C@H](CN1C(=O)COc1ccc(OC(F)(F)F)cc1)C2(C)C)C(=O)CF (stereo not given in full) [WO2022021841, 79] | 65 nM
2 | COC(=O)C[C@H](NC(=O)[C@@H]1[C@@H]2[C@H](CN1C(=O)/C=C/c1ccccc1)C2(C)C)C(=O)CF [WO2022021841, 2] | 110 nM
3 | O=C[C@H](C[C@@H]1CCNC1=O)NC(=O)C1[C@@H]2CCC[C@H]2CN1C(=O)CCc1cccc(Cl)c1 (stereo not given in full) [WO2022021841, 66] | 36 nM
4 | CC1CNC(=O)[C@@H]1C[C@@H](C=O)NC(=O)C1[C@@H]2[C@H](CN1C(=O)COc1ccc(Cl)c(Cl)c1)C2(C)C (stereo not given in full) [WO2022021841, 48] | 11 nM
5 | CCC[C@@H](NC(=O)C1[C@@H]2CCC[C@H]2CN1C(=O)c1cc2ccccc2[nH]1)C(=O)C(=O)NC1CC1 (stereo not given in full) [WO2022021841, 11] | 960 nM
6 | CC1CNC(=O)[C@@H]1C[C@@H](C=O)NC(=O)C1[C@@H]2CCC[C@H]2CN1C(=O)COc1ccc(Cl)cc1Cl (stereo not given in full) [WO2022021841, 40] | 17 nM
7 | CC1(C)[C@@H]2C(C(=O)N[C@H](C=O)C[C@@H]3CCNC3=O)N(C(=O)c3ccc4ccccc4c3)C[C@@H]21 (stereo not given in full) [WO2022021841, 16] | 343 nM
8 | O=C[C@H](C[C@@H]1CCNC1=O)NC(=O)C1[C@@H]2CCC[C@H]2CN1C(=O)CCc1cccc(O)c1 (stereo not given in full) [WO2022021841, 73] | 31 nM
9 | CCC[C@@H](NC(=O)C1[C@@H]2CCC[C@H]2CN1C(=O)[C@@H](c1ccccc1)C(C)C)C(=O)C(=O)NC1CC1 (stereo not given in full) [WO2022021841, 12] | 16900 nM
10 | O=C[C@H](C[C@@H]1CCNC1=O)NC(=O)C1[C@@H]2CCC[C@H]2CN1C(=S)NCc1cccc(F)c1 (stereo not given in full) [WO2022021841, 59] | 37 nM
11 | O=C[C@H](C[C@@H]1CCNC1=O)NC(=O)C1[C@@H]2CCC[C@H]2CN1C(=O)CCc1cc(Cl)cc(Cl)c1 (stereo not given in full) [WO2022021841, 64] | 33 nM
12 | CC(C)(Oc1ccc(Cl)cc1Cl)C(=O)N1Cc2ccccc2CC1C(=O)N[C@H](C=O)C[C@@H]1CCNC1=O (stereo not given in full) [WO2022021841, 38] | 91 nM
13 | COc1ccc(OCC(=O)N2C[C@H]3[C@@H](C2C(=O)N[C@H](C=O)C[C@@H]2CCNC2=O)C3(C)C)cc1 (stereo not given in full) [WO2022021841, 32] | 36 nM
14 | CC1CNC(=O)[C@@H]1C[C@@H](C=O)NC(=O)C1[C@@H]2[C@H](CN1C(=O)COc1cccc(-c3ccc(Cl)cc3)c1)C2(C)C (stereo not given in full) [WO2022021841, 49] | 22 nM
15 | O=C(NCc1ccccn1)C(=O)[C@H](C[C@@H]1CCNC1=O)NC(=O)C1[C@@H]2CCC[C@H]2CN1C(=O)COc1ccc(Cl)cc1Cl (stereo not given in full) [WO2022021841, 53] | 63100 nM
16 | O=C[C@H](C[C@@H]1CCNC1=O)NC(=O)C1[C@@H]2CCC[C@H]2CN1C(=O)CCc1ccc(O)cc1 (stereo not given in full) [WO2022021841, 74] | 51 nM
17 | CC1(C)[C@@H]2C(C(=O)N[C@H](C=O)C[C@@H]3CCNC3=O)N(C(=O)COc3ccc4c(c3)OCO4)C[C@@H]21 (stereo not given in full) [WO2022021841, 21] | 73 nM
18 | O=C[C@H](C[C@@H]1CCNC1=O)NC(=O)C1[C@@H]2CCC[C@H]2CN1C(=O)CCc1ccc(Cl)c(Cl)c1 (stereo not given in full) [WO2022021841, 68] | 35 nM
19 | CCC[C@@H](NC(=O)C1C2[C@H](CN1C(=O)[C@@H](c1ccccc1)C(C)C)C2(C)C)C(=O)C(=O)NC1CC1 (stereo not given in full) [WO2022021841, 13] | 82700 nM
20 | O=C[C@H](C[C@@H]1CCNC1=O)NC(=O)C1[C@@H]2CCC[C@H]2CN1C(=O)CCc1ccc(Cl)cc1 (stereo not given in full) [WO2022021841, 65] | 44 nM
21 | CC1CNC(=O)[C@@H]1C[C@@H](C=O)NC(=O)C1[C@@H]2CCC[C@H]2CN1C(=O)COc1cccc(-c2ccccc2)c1 (stereo not given in full) [WO2022021841, 47] | 12 nM
22 | C[C@H](OCc1ccccc1)C(=O)N1C[C@@H]2CCC[C@@H]2C1C(=O)N[C@H](C=O)C[C@@H]1CCNC1=O (stereo not given in full) [WO2022021841, 18] | 28 nM
23 | COc1ccc(CNC(=O)N2C[C@@H]3CCC[C@H]3C2C(=O)N[C@H](C=O)C[C@@H]2CCNC2=O)cc1 (stereo not given in full) [WO2022021841, 57] | 26 nM
24 | CC(C)(CCc1ccc(Cl)c(F)c1)C(=O)N1C[C@@H]2CCC[C@H]2C1C(=O)N[C@H](C=O)C[C@@H]1CCNC1=O (stereo not given in full) [WO2022021841, 63] | 26 nM
25 | CC1CNC(=O)[C@@H]1C[C@H](NC(=O)C1[C@H]2CCC[C@H]2CN1C(=O)COc1ccc(Cl)cc1Cl)C(=O)CF (stereo not given in full) [WO2022021841, 4] | 12 nM
26 | O=C[C@H](C[C@@H]1CCNC1=O)NC(=O)C1[C@@H]2CCC[C@H]2CN1C(=O)C(F)(F)Oc1ccc(Cl)cc1Cl (stereo not given in full) [WO2022021841, 71] | 40 nM
27 | O=C(NC1CC1)C(=O)[C@H](C[C@@H]1CCNC1=O)NC(=O)C1[C@@H]2CCC[C@H]2CN1C(=O)COc1ccc(Cl)cc1Cl (stereo not given in full) [WO2022021841, 52] | 875 nM
28 | CC1CNC(=O)[C@@H]1C[C@H](NC(=O)C1[C@@H]2CCC[C@H]2CN1C(=O)COc1ccc(OC(F)(F)F)cc1)C(=O)CF (stereo not given in full) [WO2022021841, 80] | 23 nM
29 | CC1CNC(=O)[C@@H]1C[C@@H](C=O)NC(=O)C1[C@@H]2CCC[C@H]2CN1C(=O)C(C)(C)Oc1ccc(Cl)cc1Cl (stereo not given in full) [WO2022021841, 41] | 56 nM
30 | CC(C)(OCc1ccc(F)cc1F)C(=O)N1C[C@@H]2CCC[C@H]2C1C(=O)N[C@H](C=O)C[C@@H]1CCNC1=O (stereo not given in full) [WO2022021841, 62] | 40 nM
